In patent US20230346670A1, “Prebiotic Oral Care Compositions and Methods” (Colgate-Palmolive Company, priority 2020, published 2023):
Marks after values point to notes of the source that are not given here.

Assays:
Assay type in all cases: cell-based
[1] = tested on: P. gingivalis virulence genes; test: Virulence gene expression in multi-species biofilm (SYBR RT-qPCR); conditions: relative to control, 2^-ΔΔCt, n = 3
Summary of the method: (§1)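 Multi-species biofilms on hydroxyapatite disks were grown 24 h under microaerophilic conditions at 37 °C, then rinsed three times daily for 3 min over 3 days with substrate in PBS at 1 M or 1% (w/v); PBS pH 5.7 served as control. Virulence gene expression was measured by SYBR RT-qPCR normalized to housekeeping genes, giving 2^-ΔΔCt fold change versus control as geometric mean (n = 3).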

[2] = tested on: A. actinomycetemcomitans virulence genes; test: as above
Summary of the method: as §1

[3] = tested on: F. nucleatum virulence genes; test: as above; conditions: relative to control = 1, 2^-ΔΔCt, n = 3
Summary of the method: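 Multi-species biofilms on CAD-HA disks (Amsterdam Active Adhesion model) established 24 h at 37° C. under microaerophilic conditions, then rinsed 3 min three times daily for 3 days with substrate (1 M or 1% (w/v) in PBS); PBS pH 5.7 control. 33 virulence genes from 4 periodontal pathogens quantified by SYBR RT-qPCR, housekeeping-normalized; fold change by 2^-ΔΔCt, geometric mean (n = 3).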

S. salivarius = test: Multi-species biofilm composition, absolute abundance (Geq/mL); conditions: repeated rinsing
V. parvula = test: as above; conditions: repeated rinsing
A. viscosus = test: as above; conditions: repeated rinsing
S. mutans = test: as above; conditions: repeated rinsing
S. sanguinis = test: as above; conditions: repeated rinsing
Summary of the method: (§2)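 Biofilms grown vertically on CAD-HA disks in the Amsterdam Active Adhesion model, 24 h at 37° C., 170 rpm, microaerophilic (6% O2, 7% CO2, 7% H2, 80% N2). Then rinsed 3 times a day for 3 minutes at 1 M substrate for 3 days; PBS (pH 5.7) control. Values are log(Geq/mL), mean ± SD, n = 3.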

F. nucleatum = test: as above; conditions: repeated rinsing
Summary of the method: as §2

multi-species biofilms = test: Organic acid levels in supernatant of multi-species biofilms (ion chromatography); conditions: >0 production, <0 consumption, n = 3
Summary of the method: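 Biofilms grown 24 h on calcium-deficient hydroxyapatite disks (Amsterdam Active Adhesion model, 37° C., microaerophilic), then rinsed in substrate solution 3 min, three times daily for 3 days; PBS pH 5.7 without substrate as negative control. Organic acids in filter-sterilized supernatant quantified by ion chromatography.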

[4] = lower part of Table 6a, substrate 1%(w/v), relative to control = 1
[5] = substrate 1 M, relative to control = 1, 2^-ΔΔCt, n = 3
[6] = substrate 1 M, listed as D-(+)-raffinose

SMILES: OC[C@H]1O[C@H](OC[C@H]2O[C@H](O[C@]3(CO)O[C@H](CO)[C@@H](O)[C@@H]3O)[C@H](O)[C@@H](O)[C@@H]2O)[C@H](O)[C@@H](O)[C@H]1O [D-raffinose, D-(+)-raffinose]
- fold change in fimA expression, geometric mean (95% C.I.) ([1]; substrate 1 % (w/v)): 1.47 (0.92-2.34) fold
- fold change in kgp expression, geometric mean (95% C.I.) ([1]; substrate 1 % (w/v)): 1.77 (0.74-4.21) fold
- fold change in partC expression, geometric mean (95% C.I.) ([1]; substrate 1 % (w/v)): 0.54 (0.26-1.12) fold
- fold change in rgpA expression, geometric mean (95% C.I.) ([1]; substrate 1 % (w/v)): 1.42 (1.12-1.80) fold
- fold change in fimA expression, geometric mean (95% C.I.) ([1]; substrate 1 M): 0.03 (0.00-0.16)* fold
- fold change in kgp expression, geometric mean (95% C.I.) ([1]; substrate 1 M): <LOD
- fold change in partC expression, geometric mean (95% C.I.) ([1]; substrate 1 M): 0.02 (0.00-0.12)^∗ fold
- fold change in rgpA expression, geometric mean (95% C.I.) ([1]; substrate 1 M): 0.01 (0.00-0.10)^∗ fold
- fold change in aae expression, geometric mean (95% C.I.) [2, 4]: 1.34 (0.38-4.68) fold
- fold change in apaH expression, geometric mean (95% C.I.) [2, 4]: 0.91 (0.48-1.73) fold
- fold change in cdtB expression, geometric mean (95% C.I.) [2, 4]: 0.73 (0.16-3.39) fold
- fold change in emaA expression, geometric mean (95% C.I.) [2, 4]: 0.59 (0.13-2.77) fold
- fold change in flp expression, geometric mean (95% C.I.) [2, 4]: 0.89 (0.40-1.99) fold
- fold change in ltxA expression, geometric mean (95% C.I.) [2, 4]: 0.30 (0.12-0.79) fold
- fold change in omp29 expression, geometric mean (95% C.I.) [2, 4]: 0.87 (0.26-2.87) fold
- fold change in omp100 expression, geometric mean (95% C.I.) [2, 4]: 0.31 (0.09-1.08)^∗ fold
- fold change in orf859 expression, geometric mean (95% C.I.) [2, 4]: 1.66 (0.86-3.20) fold
- fold change in pgA expression, geometric mean (95% C.I.) [2, 4]: 0.99 (0.38-2.55) fold
- fold change in vapA expression, geometric mean (95% C.I.) [2, 4]: 1.14 (0.40-3.20) fold
- fold change in vppA expression, geometric mean (95% C.I.) [2, 4]: 1.08 (0.53-2.18) fold
- fold change in aae expression, geometric mean (95% C.I.) [2, 5]: 0.16 (0.05-0.47)^∗ fold
- fold change in apaH expression, geometric mean (95% C.I.) [2, 5]: 0.11 (0.02-0.73)^∗ fold
- fold change in cdtB expression, geometric mean (95% C.I.) [2, 5]: 0.07 (0.02-0.25)^∗ fold
- fold change in emaA expression, geometric mean (95% C.I.) [2, 5]: 0.09 (0.03-0.29)^∗ fold
- fold change in flp expression, geometric mean (95% C.I.) [2, 5]: 0.45 (0.17-1.22) fold
- fold change in ltxA expression, geometric mean (95% C.I.) [2, 5]: 0.01 (0.01-0.03)^∗ fold
- fold change in omp29 expression, geometric mean (95% C.I.) [2, 5]: 1.37 (0.34-5.47) fold
- fold change in omp100 expression, geometric mean (95% C.I.) [2, 5]: 0.09 (0.02-0.43)^∗ fold
- fold change in orf859 expression, geometric mean (95% C.I.) [2, 5]: 0.02 (0.01-0.05)^∗ fold
- fold change in pgA expression, geometric mean (95% C.I.) [2, 5]: 7.26 (2.09-25.17)^∗ fold
- fold change in vapA expression, geometric mean (95% C.I.) [2, 5]: 0.50 (0.13-1.94) fold
- fold change in vppA expression, geometric mean (95% C.I.) [2, 5]: 0.05 (0.04-2.42)^∗ fold
- fold change in pgA expression, geometric mean (95% C.I.) ([2]; substrate 1 M, relative to control = 1, 2^-ΔΔCt, n = 3, listed as D-(+)-raffinose): 7.3 fold
- fold change in ABC transp. perm. (ABC transporter permease) expression, geometric mean (95% C.I.) ([3]; substrate 1% (w/v)): 0.17 (0.04-0.65)^∗ fold
- fold change in EF-G expression, geometric mean (95% C.I.) ([3]; substrate 1% (w/v)): 0.12 (0.04-0.33)^∗ fold
- fold change in but. -coA transf. (butyrate-acetoacetate CoA-transferase) expression, geometric mean (95% C.I.) ([3]; substrate 1% (w/v)): 0.47 (0.06-3.98) fold
- fold change in hemin receptor expression, geometric mean (95% C.I.) ([3]; substrate 1% (w/v)): 0.12 (0.09-0.15)^∗ fold
- fold change in hemolysin expression, geometric mean (95% C.I.) ([3]; substrate 1% (w/v)): 0.51 (0.16-1.62)^∗ fold
- fold change in ompA expression, geometric mean (95% C.I.) ([3]; substrate 1% (w/v)): 0.70 (0.20-2.44) fold
- fold change in transposase expression, geometric mean (95% C.I.) ([3]; substrate 1% (w/v)): 0.78 (0.40-1.53) fold
- fold change in ABC transp. perm. (ABC transporter permease) expression, geometric mean (95% C.I.) ([3]; substrate 1 M): 41.25 (11.65-146.10)^∗ fold
- fold change in EF-G expression, geometric mean (95% C.I.) ([3]; substrate 1 M): 1.41 (0.70-2.83) fold
- fold change in but. -coA transf. (butyrate-acetoacetate CoA-transferase) expression, geometric mean (95% C.I.) ([3]; substrate 1 M): 3.95 (0.89-17.60)* fold
- fold change in hemin receptor expression, geometric mean (95% C.I.) ([3]; substrate 1 M): 18.04 (7.92-41.14)^∗ fold
- fold change in hemolysin expression, geometric mean (95% C.I.) ([3]; substrate 1 M): 2.50 (1.07-5.83)^∗ fold
- fold change in ompA expression, geometric mean (95% C.I.) ([3]; substrate 1 M): 1.07 (0.49-2.36) fold
- fold change in transposase expression, geometric mean (95% C.I.) ([3]; substrate 1 M): 251.47 (75.27-840.20)^∗ fold
- absolute abundance of S. salivarius, mean ± SD log (Geq/mL) (S. salivarius; substrate 1% (w/v)): 2.65 ± 0.00 log (Geq/mL)
- absolute abundance of S. salivarius, mean ± SD log (Geq/mL) (S. salivarius; substrate 1 M in PBS, n = 3): 6.29 ± 0.21^∗ log (Geq/mL)
- absolute abundance of V. parvula (VP), mean ± SD log (Geq/mL) (V. parvula; substrate 1% (w/v)): 9.83 ± 0.09 log (Geq/mL)
- absolute abundance of V. parvula (VP), mean ± SD log (Geq/mL) (V. parvula; substrate 1 M in PBS, n = 3): 9.88 ± 0.07 log (Geq/mL)
- absolute abundance of A. viscosus (Av), mean ± SD log (Geq/mL) (A. viscosus; substrate 1% (w/v)): 7.77 ± 0.14 log (Geq/mL)
- absolute abundance of A. viscosus (Av), mean ± SD log (Geq/mL) (A. viscosus; substrate 1 M in PBS, n = 3): 7.08 ± 0.59 log (Geq/mL)
- absolute abundance of S. mutans, mean ± SD log (Geq/mL) (S. mutans; substrate 1% (w/v)): 7.46 ± 0.16 log (Geq/mL)
- absolute abundance of S. mutans, mean ± SD log (Geq/mL) (S. mutans; substrate 1 M in PBS, n = 3): 8.24 ± 0.17^∗ log (Geq/mL)
- absolute abundance of S. sanguinis, mean ± SD log (Geq/mL) (S. sanguinis; substrate 1% (w/v)): 8.56 ± 0.11 log (Geq/mL)
- absolute abundance of S. sanguinis, mean ± SD log (Geq/mL) (S. sanguinis; substrate 1 M in PBS, n = 3): 6.39 ± 0.51 log (Geq/mL)
- absolute abundance of F. nucleatum (Fn), mean ± SD log (Geq/mL) (F. nucleatum; substrate 1% (w/v)): 9.40 ± 0.10 log (Geq/mL)
- absolute abundance of F. nucleatum (Fn), mean ± SD log (Geq/mL) (F. nucleatum; substrate 1 M in PBS, n = 3): 6.73 ± 0.06^∗ log (Geq/mL)
- acetate level in biofilm supernatant, mean ± SD (multi-species biofilms; substrate 1% (w/v)): 380 ± 23 mg/L
- butyrate level in biofilm supernatant, mean ± SD (multi-species biofilms; substrate 1% (w/v)): 2003 ± 81 mg/L
- formate level in biofilm supernatant, mean ± SD (multi-species biofilms; substrate 1% (w/v)): 3748 ± 197 mg/L
- lactate level in biofilm supernatant, mean ± SD (multi-species biofilms; substrate 1% (w/v)): -125 ± 0 mg/L
- propionate level in biofilm supernatant, mean ± SD (multi-species biofilms; substrate 1% (w/v)): 2033 ± 48 mg/L
- acetate level in biofilm supernatant, mean ± SD (multi-species biofilms; substrate 1 M): 2640 ± 154^∗ mg/L
- butyrate level in biofilm supernatant, mean ± SD (multi-species biofilms; substrate 1 M): 154 ± 26^∗ mg/L
- formate level in biofilm supernatant, mean ± SD (multi-species biofilms; substrate 1 M): 344 ± 25^∗ mg/L
- lactate level in biofilm supernatant, mean ± SD (multi-species biofilms; substrate 1 M): 971 ± 43^∗ mg/L
- propionate level in biofilm supernatant, mean ± SD (multi-species biofilms; substrate 1 M): 4178 ± 105^∗ mg/L
- acetate level in biofilm supernatant, mean ± SD (multi-species biofilms; [6]): 2640 ± 154 mg/L
- butyrate level in biofilm supernatant, mean ± SD (multi-species biofilms; [6]): 154 ± 26 mg/L
- lactate level in biofilm supernatant, mean ± SD (multi-species biofilms; [6]): 971 ± 43 mg/L
- propionate level in biofilm supernatant, mean ± SD (multi-species biofilms; [6]): 4178 ± 105 mg/L
